Assay results: patent publication US12453349B2, “Compositions comprising pyridine carboxylate herbicides and 4-hydroxyphenyl-pyruvate dioxygenase (HPPD) inhibitor herbicides” (Corteva Agriscience LLC, priority 2018, dated 2025)

Experiments:
Type in all cases: in vivo
[1] = test system: AMARE, Amaranthus retroflexus (pigweed); test: Greenhouse postemergence herbicidal effect, visual injury 20-22 d after application
From the text: (§1) Seeds of the desired test plant species were planted in a 90:10% v/v (volume/volume) mixture of PRO-MIX® BX (Premier Tech Horticulture, Quakertown, PA, USA) and PROFILE® GREENS GRADE™ (Profile Products LLC, Buffalo Grove, IL, USA) planting mixture, which typically has a pH of 5.2 to 6.2 and an organic matter content of at least 50 percent, in plastic pots with a surface area of 103.2 square centimeters (cm^2). In some aspects, to help ensure good germination and healthy plants, a fungicide treatment and/or other chemical or physical treatment was applied. The plants were grown for 7-36 days (d) in a greenhouse with an approximate 14-hour (h) photoperiod which was maintained at about 23° C. during the day and 22° C. during the night. Nutrients and water were added on a regular basis and supplemental lighting was provided with overhead metal halide 1000-Watt lamps as necessary. The plants were employed for testing when they reached the second or third true leaf stage.
(§2) Emulsifiable concentrates of each of each pyridine carboxylate herbicide (Compound A or Compound B) were prepared at 100 grams acid equivalent per liter (g ae/L). The emulsifiable concentrates also included a safener, cloquintocet mexyl, at 120 grams active ingredient per liter (g ai/L). An aliquot of each emulsifiable concentrate was placed in a 25 mL glass vial and diluted with an aqueous mixture of 1.25% (v/v) ACTIROB® B esterified rapeseed oil (Bayer Crop Science, Research Triangle Park, NC, USA) or MSO® Concentrate with LECI-TECH® methylated soybean oil (Loveland Products, Loveland, CO, USA) to obtain concentrated stock solutions at the highest application rate for each herbicide, based upon a 12 milliliter (mL) application volume at a rate of 187 liters per hectare (L/ha). The concentrated stock solutions were further diluted with an aqueous mixture of 1.25% v/v ACTIROB® B or MSO® Concentrate with LECI-TECH® to obtain stock solutions at reduced application rates for each herbicide. Spray solutions of the herbicide combinations (Compound A or Compound B plus HPPD inhibitor herbicide) were prepared by adding weighed amounts or aliquots of the HPPD inhibitor herbicides to the stock solutions of Compound A or Compound B to form 12-mL spray solutions in two-way combinations.
(§3) The spray solutions were applied to the plant material with an overhead Mandel track sprayer equipped with 8002E nozzles calibrated to deliver 187 L/ha over an application area of 0.503 square meters (m^2) at a spray height of 18 inches (43 centimeters (cm)) above the average plant canopy. Control plants were sprayed in the same manner with the solvent blank. All pyridine carboxylate herbicide (component a) application rates are given as “g ae/ha” and all HPPD inhibitor herbicide (component b) application rates are given as “g ai/ha.”
(§4) The treated plants and control plants were placed in a greenhouse as described above and watered by sub-irrigation to prevent wash-off of the test compounds. After 20-22 d, the condition of the test plants as compared with that of the control plants was determined visually and scored on a scale of 0 to 100 percent where 0 corresponds to no injury and 100 corresponds to complete kill.

[2] = test system: HELAN, Helianthus annuus (common sunflower); test: as above; conditions: Mesotrione 35 g ai/ha
From the text: as §1, §2, §3, §4

[3] = test system: EPHHL, Euphorbia heterophylla (poinsettia); test: as above; conditions: Mesotrione 35 g ai/ha
From the text: as §1, §2, §3, §4

[4] = test system: CIRAR, Cirsium arvense (Canadian thistle); test: as above
From the text: as §1, §2, §3, §4

[5] = test system: ABUTH, Abutilon theophrasti (velvetleaf); test: as above
From the text: as §1, §2, §3, §4

[6] = test system: VIOTR, Viola tricolor (wild pansy); test: as above
From the text: as §1, §2, §3, §4

[7] = test system: POLCO, Polygonum convolvulus (wild buckwheat); test: as above
From the text: as §1, §2, §3, §4

[8] = test system: KCHSC, Kochia scoparia (kochia); test: as above; conditions: Bassia scoparia, post-emergence, read-out: % visual injury Obs
From the text: as §1, §2, §3, §4

[9] = test system: BRSNW, Brassica napus (winter rape); test: as above
From the text: as §1, §2, §3, §4

[10] = test system: SINAR, Sinapis arvensis (wild mustard); test: as above
From the text: as §1, §2, §3, §4

[11] = test system: MATCH, Matricaria chamomilla (wild chamomile); test: as above
From the text: as §1, §2, §3, §4

[12] = test system: CHEAL, Chenopodium album L. (common lambsquarters); test: as above
From the text: as §1, §2, §3, §4

[13] = test system: SASKR, Salsola kali (Russian thistle); test: as above
From the text: as §1, §2, §3, §4

[14] = test system: BRSNN, Brassica napus (spring rape); test: as above; conditions: Sulcotrione 75 g ai/ha
From the text: as §1, §2, §3, §4

[15] = test system: TRZAS, Triticum aestivum (spring wheat); test: Greenhouse postemergence phytotoxicity on crop, visual injury 20-22 d after application
From the text: as §1, §2, §3, §4

[16] = test system: HORVS, Hordeum vulgare (spring barley); test: as above
From the text: as §1, §2, §3, §4

[17] = Mesotrione 35 g ai/ha (Table 8)

SMILES: CS(=O)(=O)c1ccc(C(=O)C2C(=O)CCCC2=O)c([N+](=O)[O-])c1 [Mesotrione, 2-[4-(methylsulfonyl)-2-nitrobenzoyl]-1,3-cyclohexanedione]
- % visual injury Obs ([1]; Mesotrione 35 g ai/ha): 90%
- % visual injury Obs [2]: 90%
- % visual injury Obs [3]: 100%
- % visual injury Obs ([4]; Mesotrione 35 g ai/ha): 84%
- % visual injury Obs [4, 17]: 73%
- % visual injury Obs ([5]; Mesotrione 35 g ai/ha): 99%
- % visual injury Obs [5, 17]: 85%
- % visual injury Obs ([6]; Mesotrione 35 g ai/ha): 75%
- % visual injury Obs [6, 17]: 78%
- % visual injury Obs ([7]; Mesotrione 35 g ai/ha): 75%
- pest or weed control at 35 g/ha ([8]; KCHSC, Mesotrione 35 g ai/ha): 35%

SMILES: Cc1ccc(S(=O)(=O)Oc2c(C(=O)c3ccc(Cl)cc3Cl)c(C)nn2C)cc1 [Pyrazolynate, (2,4-dichlorophenyl) [1,3-dimethyl-5-[[(4-methylphenyl)sulfonyl]oxy]-1H-pyrazol-4-yl]methanone]
- % visual injury Obs ([9]; Pyrazolynate 225 g ai/ha): 0%
- % visual injury Obs ([1]; Pyrazolynate 225 g ai/ha): 10%
- % visual injury Obs ([10]; Pyrazolynate 225 g ai/ha): 5%
- % visual injury Obs ([11]; Pyrazolynate 225 g ai/ha): 0%
- % visual injury Obs ([12]; Pyrazolynate 225 g ai/ha): 5%
- % visual injury Obs ([4]; Pyrazolynate 225 g ai/ha): 0%
- % visual injury Obs ([13]; Pyrazolynate 225 g ai/ha): 0%
- % visual injury Obs ([7]; Pyrazolynate 225 g ai/ha): 5%
- pest or weed control at 225 g/ha ([8]; KCHSC, Pyrazolynate 225 g ai/ha): 0%

SMILES: CS(=O)(=O)c1ccc(C(=O)C2C(=O)CCCC2=O)c(Cl)c1 [Sulcotrione, 2-[2-chloro-4-(methylsulfonyl)benzoyl]-1,3-cyclohexanedione]
- % visual injury Obs [14]: 75%
- pest or weed control at 75 g/ha [8]: 30%
- % visual injury Obs ([15]; Sulcotrione 75 g ai/ha): 0%
- % visual injury Obs ([16]; Sulcotrione 75 g ai/ha): 8%

SMILES: CS(=O)(=O)c1ccc(C(=O)C2C(=O)CCCC2=O)c(Cl)c1COCC(F)(F)F [Tembotrione, 2-[2-chloro-4-(methylsulfonyl)-3-[(2,2,2-trifluoroethoxy)methyl]benzoyl]-1,3-cyclohexanedione]
- % visual injury Obs ([9]; Tembotrione 25 g ai/ha): 88%
- % visual injury Obs ([1]; Tembotrione 25 g ai/ha): 100%
- % visual injury Obs ([10]; Tembotrione 25 g ai/ha): 95%
- % visual injury Obs ([11]; Tembotrione 25 g ai/ha): 73%
- % visual injury Obs ([12]; Tembotrione 25 g ai/ha): 100%
- % visual injury Obs ([4]; Tembotrione 25 g ai/ha): 75%
- % visual injury Obs ([13]; Tembotrione 25 g ai/ha): 78%
- % visual injury Obs ([7]; Tembotrione 25 g ai/ha): 25%
- pest or weed control at 25 g/ha ([8]; KCHSC, Tembotrione 25 g ai/ha): 48%

SMILES: Cc1c(C(=O)c2cnn(C)c2O)ccc(S(C)(=O)=O)c1C1=NOCC1 [Topramezone, [3-(4,5-dihydro-3-isoxazolyl)-2-methyl-4-(methylsulfonyl)phenyl] (5-hydroxy-1-methyl-1H-pyrazol-4-yl) methanone]
- % visual injury Obs ([9]; Topramezone 40 g ai/ha): 98%
- % visual injury Obs ([1]; Topramezone 40 g ai/ha): 100%
- % visual injury Obs ([10]; Topramezone 40 g ai/ha): 100%
- % visual injury Obs ([11]; Topramezone 40 g ai/ha): 30%
- % visual injury Obs ([12]; Topramezone 40 g ai/ha): 100%
- % visual injury Obs ([4]; Topramezone 40 g ai/ha): 20%
- % visual injury Obs ([7]; Topramezone 40 g ai/ha): 43%
- pest or weed control at 40 g/ha [8]: 35%
- % visual injury Obs ([15]; Topramezone 40 g ai/ha): 33%
- % visual injury Obs ([16]; Topramezone 40 g ai/ha): 38%
